Test results from US20260000695A1, “SOLID AND ORAL ETOPOSIDE TONIRIBATE COMPOSITIONS” (CELLACT PHARMA GMBH, priority 2022, published 2026).

Experiments:
[1] = Table 9A: HPLC peaks over storage time, sample and storage not described; type: physicochemical
[2] = Solubility and pH stability of the API; type: physicochemical
[3] = API; cited from earlier work

In the case of COc1cc([C@@H]2c3cc4c(cc3[C@@H](O[C@@H]3O[C@@H]5CO[C@@H](C)O[C@H]5[C@@H](O)[C@H]3O)[C@H]3COC(=O)[C@H]23)OCO4)cc(OC)c1OC(=O)OCC1COC(C)(C)O1 (stereo partly shown) [CAP 7.1, Etoposide toniribate], the “Peak %, CAP 7.1 RT: 20.25” value ([1]; 5 days) is reported as 98.83%, the “Peak %, RRT:0.51 RT:10.43” value ([1]; 5 days) is reported as 0.09% and the “Peak %, RRT: 0.54 RT: 10.89 (Etoposide)” value ([1]; 5 days) is reported as 0.17%. For the same compound, the “Peak %, RRT: 0.95 RT: 19.13” value ([1]; 5 days) was 0.09%, the “Peak %, RRT: 0.97 RT: 19.67” value ([1]; 5 days) was 0.67% and the “Peak %, RRT: 1.10 RT: 22.32” value ([1]; 5 days) was 0.04%. The “Peak %, RRT: 1.15 RT: 23.46” value ([1]; 5 days) was 0.07%, the “Peak %, RRT: 1.19 RT: 24.11” value ([1]; 5 days) was 0.04% and the “Peak %, CAP 7.1 RT: 20.25” value ([1]; 12 days) was 98.58%. For the same compound, the “Peak %, RRT:0.51 RT:10.43” value ([1]; 12 days) was 0.09%, the “Peak %, RRT: 0.54 RT: 10.89 (Etoposide)” value ([1]; 12 days) was 0.22% and the “Peak %, RRT: 0.95 RT: 19.13” value ([1]; 12 days) was 0.09%. For the same compound, the “Peak %, RRT: 0.97 RT: 19.67” value ([1]; 12 days) was 0.87%, the “Peak %, RRT: 1.10 RT: 22.32” value ([1]; 12 days) was 0.03% and the “Peak %, RRT: 1.15 RT: 23.46” value ([1]; 12 days) was 0.07%. The “Peak %, RRT: 1.19 RT: 24.11” value ([1]; 12 days) was 0.04%, the “Peak %, CAP 7.1 RT: 20.25” value ([1]; 17 days) was 98.18% and the “Peak %, RRT:0.51 RT:10.43” value ([1]; 17 days) was 0.17%. The “Peak %, RRT: 0.54 RT: 10.89 (Etoposide)” value ([1]; 17 days) was 0.33%, the “Peak %, RRT: 0.95 RT: 19.13” value ([1]; 17 days) was 0.10% and the “Peak %, RRT: 0.97 RT: 19.67” value ([1]; 17 days) was 1.10%. The “Peak %, RRT: 1.10 RT: 22.32” value ([1]; 17 days) was 0.04%, the “Peak %, RRT: 1.15 RT: 23.46” value ([1]; 17 days) was 0.04% and the “Peak %, RRT: 1.19 RT: 24.11” value ([1]; 17 days) was 0.04%. The “Peak %, CAP 7.1 RT: 20.25” value ([1]; initial) was 99.21%, the “Peak %, RRT: 0.54 RT: 10.89 (Etoposide)” value ([1]; initial) was 0.10% and the “Peak %, RRT: 0.95 RT: 19.13” value ([1]; initial) was 0.10%. For the same compound, the “Peak %, RRT: 0.97 RT: 19.67” value ([1]; initial) was 0.48%, the “Peak %, RRT: 1.10 RT: 22.32” value ([1]; initial) was 0.05% and the “Peak %, RRT: 1.15 RT: 23.46” value ([1]; initial) was 0.04%. The “Peak %, RRT: 1.19 RT: 24.11” value ([1]; initial) was 0.03%, the “solubility in water or aqueous buffer systems” value [2] was “practically insoluble” and the solubility in water [3] was “poorly soluble”. For the same compound, the “stability at acidic and basic pH” value [3] was “unstable”.
